According to patent US20260262643A1, “HERBICIDAL BENZOXAZINES” (FMC CORPORATION, priority 2022, published 2026):

Assays:
ryegrass, Italian [1] = assay: Test C preemergence; type: in vivo, Lolium multiflorum; settings: 0 to 100 scale (0 no effect, 100 complete control); for Plant response rating, Ryegrass, Italian: Preemergence, 500 g ai/ha, visual rating after 10 days; for Ryegrass, Italian plant response rating: Test C, preemergence, 125 g ai/ha
How it was run: (§1)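 Visual injury score, 0–100 (100 = complete control), taken 10 days after treatment relative to untreated controls. Pre: directed spray onto soil over sown seeds. Post: foliar spray at one- to two-leaf stage, 2–10 cm. Solvent/surfactant formulation; loam–sand soil; greenhouse.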

corn [2] = assay: Test C preemergence; type: in vivo, Zea mays; settings: 0 to 100 scale (0 no effect, 100 complete control); for Plant response rating, Corn: Preemergence, 500 g ai/ha, visual rating after 10 days; for Corn plant response rating: Test C, preemergence, 125 g ai/ha
How it was run: as §1

corn [3] = assay: Test C postemergence; type: in vivo, Zea mays; settings: 10 days
How it was run: as §1

blackgrass [4] = assay: Test C postemergence; type: in vivo, Alopecurus myosuroides; settings: 10 days
How it was run: as §1

ducksalad = assay: Test D flooded paddy test; type: in vivo, Heteranthera limosa; settings: 250 g ai/ha, applied to paddy water, visual rating after 13 to 14 days, scale 0 to 100 (0 no effect, 100 complete control)
Method: (§2) Plant species in the flooded paddy test selected from barnyardgrass (Echinochloa crus-galli), ducksalad (Heteranthera limosa), rice (Oryza sativa), and sedge, umbrella (small-flower umbrella sedge, Cyperus difformis) were grown to the 2-leaf stage for testing. At time of treatment, test pots were flooded to 3 cm above the soil surface, treated by application of test compounds directly to the paddy water, and then maintained at that water depth for the duration of the test. Treated plants and controls were maintained in a greenhouse for 13 to 14 days, after which time all species were compared to controls and visually evaluated. Plant response ratings, summarized in Table D, are based on a scale of 0 to 100 where 0 is no effect and 100 is complete control. A dash (-) response means no test result.

pigweed, palmer [5] = assay: Test C postemergence; type: in vivo, Amaranthus palmeri; settings: 10 days
How it was run: as §1

horseweed = assay: Test C postemergence; type: in vivo, Erigeron canadensis; settings: 10 days
How it was run: as §1

soybean [6] = assay: Test C preemergence; type: in vivo, Glycine max; settings: 0 to 100 scale (0 no effect, 100 complete control); for Plant response rating, Soybean: Preemergence, 500 g ai/ha, visual rating after 10 days; for Soybean plant response rating: Test C, preemergence, 125 g ai/ha
How it was run: as §1

wheat [7] = assay: Test C postemergence; type: in vivo, Triticum aestivum; settings: 10 days
How it was run: as §1

kochia [8] = assay: Test C preemergence; type: in vivo, Bassia scoparia; settings: 0 to 100 scale (0 no effect, 100 complete control); for Plant response rating, Kochia: Preemergence, 500 g ai/ha, visual rating after 10 days; for Kochia plant response rating: Test C, preemergence, 125 g ai/ha
How it was run: as §1

ragweed [9] = assay: Test C preemergence; type: in vivo, Ambrosia artemisiifolia; settings: 0 to 100 scale (0 no effect, 100 complete control); for Plant response rating, Ragweed: Preemergence, 500 g ai/ha, visual rating after 10 days; for Ragweed plant response rating: Test C, preemergence, 125 g ai/ha
How it was run: as §1

green foxtail = assay: Test C preemergence; type: in vivo, Setaria viridis; settings: 0 to 100 scale (0 no effect, 100 complete control); for Plant response rating, Foxtail, Green: Preemergence, 500 g ai/ha, visual rating after 10 days; for Foxtail, Green plant response rating: Test C, preemergence, 125 g ai/ha
How it was run: as §1

oat, wild [10] = assay: Test C preemergence; type: in vivo, Avena fatua; settings: 0 to 100 scale (0 no effect, 100 complete control); for Plant response rating, Oat, Wild: Preemergence, 500 g ai/ha, visual rating after 10 days; for Oat, Wild plant response rating: Test C, preemergence, 125 g ai/ha
How it was run: as §1

wheat [11] = assay: Test C preemergence; type: in vivo, Triticum aestivum; settings: 0 to 100 scale (0 no effect, 100 complete control); for Plant response rating, Wheat: Preemergence, 500 g ai/ha, visual rating after 10 days; for Wheat plant response rating: Test C, preemergence, 125 g ai/ha
How it was run: as §1

rice = assay: Test D flooded paddy test; type: in vivo, Oryza sativa; settings: 250 g ai/ha, applied to paddy water, visual rating after 13 to 14 days, scale 0 to 100 (0 no effect, 100 complete control)
Method: as §2

oat, wild [12] = assay: Test C postemergence; type: in vivo, Avena fatua; settings: 10 days
How it was run: as §1

barnyardgrass [13] = assay: Test C postemergence; type: in vivo, Echinochloa crusgalli; settings: 10 days
How it was run: as §1

ragweed [14] = assay: Test C postemergence; type: in vivo, Ambrosia artemisiifolia; settings: 10 days
How it was run: as §1

pigweed, palmer [15] = assay: Test C preemergence; type: in vivo, Amaranthus palmeri; settings: 0 to 100 scale (0 no effect, 100 complete control); for Plant response rating, Pigweed, Palmer: Preemergence, 500 g ai/ha, visual rating after 10 days; for Pigweed, Palmer plant response rating: Test C, preemergence, 125 g ai/ha
How it was run: as §1

barnyardgrass [16] = assay: Test D flooded paddy test; type: in vivo, Echinochloa crus-galli; settings: 250 g ai/ha, applied to paddy water, visual rating after 13 to 14 days, scale 0 to 100 (0 no effect, 100 complete control)
Method: as §2

sedge, umbrella = assay: Test D flooded paddy test; type: in vivo, Cyperus difformis; settings: 250 g ai/ha, applied to paddy water, visual rating after 13 to 14 days, scale 0 to 100 (0 no effect, 100 complete control)
Method: as §2

barnyardgrass [17] = assay: Test C preemergence; type: in vivo, Echinochloa crusgalli; settings: 0 to 100 scale (0 no effect, 100 complete control); for Plant response rating, Barnyardgrass: Preemergence, 500 g ai/ha, visual rating after 10 days; for Barnyardgrass plant response rating: Test C, preemergence, 125 g ai/ha
How it was run: as §1

soybean [18] = assay: Test C postemergence; type: in vivo, Glycine max; settings: 10 days
How it was run: as §1

galium = assay: Test C postemergence; type: in vivo, Galium aparine; settings: 10 days
How it was run: as §1

ryegrass, Italian [19] = assay: Test C postemergence; type: in vivo, Lolium multiflorum; settings: 10 days
How it was run: as §1

kochia [20] = assay: Test C postemergence; type: in vivo, Bassia scoparia; settings: 10 days
How it was run: as §1

blackgrass [21] = assay: Test C preemergence; type: in vivo, Alopecurus myosuroides; settings: 0 to 100 scale (0 no effect, 100 complete control); for Plant response rating, Blackgrass: Preemergence, 500 g ai/ha, visual rating after 10 days; for Blackgrass plant response rating: Test C, preemergence, 125 g ai/ha
How it was run: as §1

[22] = 125 g ai/ha, postemergence, 0 to 100 scale, 0 no effect, 100 complete control
[23] = Postemergence, 500 g ai/ha, visual 0 to 100 scale (0 no effect, 100 complete control)

Structure (SMILES): Cc1ccc(-n2cnc(C3(C)CC3)n2)cc1C(=O)N1C[C@H](C)Oc2c(Cl)cccc21 [Compound 252]
- Plant response rating, Ryegrass, Italian (ryegrass, Italian [1]): 80
- Ryegrass, Italian plant response rating (ryegrass, Italian [1]): 60
- Plant response rating, Corn (corn [2]): 0
- Corn plant response rating (corn [2]): 0
- Plant response rating, Corn (corn [3]; [22]): 60
- Plant response rating, Corn (corn [3]; [23]): 80
- Plant response rating, Blackgrass (blackgrass [4]; [22]): 80
- Plant response rating, Blackgrass (blackgrass [4]; [23]): 80
- Plant response rating, Ducksalad (Flood) (ducksalad): 15
- Plant response rating, Pigweed, Palmer (pigweed, palmer [5]; [22]): 90
- Plant response rating, Pigweed, Palmer (pigweed, palmer [5]; [23]): 100
- Plant response rating, Horseweed (horseweed; [22]): 20
- Plant response rating, Horseweed (horseweed; [23]): 50
- Plant response rating, Soybean (soybean [6]): 80
- Soybean plant response rating (soybean [6]): 20
- Plant response rating, Wheat (wheat [7]; [22]): 20
- Plant response rating, Wheat (wheat [7]; [23]): 30
- Plant response rating, Kochia (kochia [8]): 100
- Kochia plant response rating (kochia [8]): 100
- Plant response rating, Ragweed (ragweed [9]): 30
- Ragweed plant response rating (ragweed [9]): 0
- Plant response rating, Foxtail, Green (green foxtail): 100
- Foxtail, Green plant response rating (green foxtail): 100
- Plant response rating, Oat, Wild (oat, wild [10]): 70
- Oat, Wild plant response rating (oat, wild [10]): 20
- Plant response rating, Wheat (wheat [11]): 10
- Wheat plant response rating (wheat [11]): 0
- Plant response rating, Rice (Flood) (rice): 0
- Plant response rating, Oat, Wild (oat, wild [12]; [22]): 10
- Plant response rating, Oat, Wild (oat, wild [12]; [23]): 10
- Plant response rating, Barnyardgrass (barnyardgrass [13]; [22]): 60
- Plant response rating, Barnyardgrass (barnyardgrass [13]; [23]): 80
- Plant response rating, Ragweed (ragweed [14]; [22]): 70
- Plant response rating, Ragweed (ragweed [14]; [23]): 80
- Plant response rating, Pigweed, Palmer (pigweed, palmer [15]): 100
- Pigweed, Palmer plant response rating (pigweed, palmer [15]): 100
- Plant response rating, Barnyardgrass (Flood) (barnyardgrass [16]): 35
- Plant response rating, Sedge, Umbrella (Flood) (sedge, umbrella): 15
- Plant response rating, Barnyardgrass (barnyardgrass [17]): 90
- Barnyardgrass plant response rating (barnyardgrass [17]): 80
- Plant response rating, Soybean (soybean [18]; [22]): 100
- Plant response rating, Soybean (soybean [18]; [23]): 100
- Plant response rating, Galium (galium; [22]): 100
- Plant response rating, Galium (galium; [23]): 100
- Plant response rating, Ryegrass, Italian (ryegrass, Italian [19]; [22]): 80
- Plant response rating, Ryegrass, Italian (ryegrass, Italian [19]; [23]): 80
- Plant response rating, Kochia (kochia [20]; [22]): 90
- Plant response rating, Kochia (kochia [20]; [23]): 100
- Plant response rating, Blackgrass (blackgrass [21]): 20
- Blackgrass plant response rating (blackgrass [21]): 0

Structure (SMILES): CCc1ncn(-c2ccc(OC)c(C(=O)N3C[C@H](COC)Oc4c(Cl)cccc43)c2)n1 [Compound 231]
- Plant response rating, Ryegrass, Italian (ryegrass, Italian [1]): 90
- Ryegrass, Italian plant response rating (ryegrass, Italian [1]): 70
- Plant response rating, Corn (corn [2]): 30
- Corn plant response rating (corn [2]): 10
- Plant response rating, Corn (corn [3]; [22]): 70
- Plant response rating, Corn (corn [3]; [23]): 90
- Plant response rating, Blackgrass (blackgrass [4]; [22]): 80
- Plant response rating, Blackgrass (blackgrass [4]; [23]): 90
- Plant response rating, Ducksalad (Flood) (ducksalad): 85
- Plant response rating, Pigweed, Palmer (pigweed, palmer [5]; [22]): 90
- Plant response rating, Pigweed, Palmer (pigweed, palmer [5]; [23]): 90
- Plant response rating, Horseweed (horseweed; [22]): 60
- Plant response rating, Horseweed (horseweed; [23]): 90
- Plant response rating, Soybean (soybean [6]): 70
- Soybean plant response rating (soybean [6]): 60
- Plant response rating, Wheat (wheat [7]; [22]): 50
- Plant response rating, Wheat (wheat [7]; [23]): 90
- Plant response rating, Kochia (kochia [8]): 100
- Kochia plant response rating (kochia [8]): 90
- Plant response rating, Ragweed (ragweed [9]): 90
- Ragweed plant response rating (ragweed [9]): 50
- Plant response rating, Foxtail, Green (green foxtail): 100
- Foxtail, Green plant response rating (green foxtail): 100
- Plant response rating, Oat, Wild (oat, wild [10]): 80
- Oat, Wild plant response rating (oat, wild [10]): 40
- Plant response rating, Wheat (wheat [11]): 80
- Wheat plant response rating (wheat [11]): 40
- Plant response rating, Rice (Flood) (rice): 0
- Plant response rating, Oat, Wild (oat, wild [12]; [22]): 50
- Plant response rating, Oat, Wild (oat, wild [12]; [23]): 90
- Plant response rating, Barnyardgrass (barnyardgrass [13]; [22]): 80
- Plant response rating, Barnyardgrass (barnyardgrass [13]; [23]): 90
- Plant response rating, Ragweed (ragweed [14]; [22]): 70
- Plant response rating, Ragweed (ragweed [14]; [23]): 70
- Plant response rating, Pigweed, Palmer (pigweed, palmer [15]): 100
- Pigweed, Palmer plant response rating (pigweed, palmer [15]): 100
- Plant response rating, Barnyardgrass (Flood) (barnyardgrass [16]): 15
- Plant response rating, Sedge, Umbrella (Flood) (sedge, umbrella): 100
- Plant response rating, Barnyardgrass (barnyardgrass [17]): 100
- Barnyardgrass plant response rating (barnyardgrass [17]): 60
- Plant response rating, Soybean (soybean [18]; [22]): 100
- Plant response rating, Soybean (soybean [18]; [23]): 100
- Plant response rating, Galium (galium; [22]): 100
- Plant response rating, Galium (galium; [23]): 100
- Plant response rating, Ryegrass, Italian (ryegrass, Italian [19]; [22]): 90
- Plant response rating, Ryegrass, Italian (ryegrass, Italian [19]; [23]): 100
- Plant response rating, Kochia (kochia [20]; [22]): 80
- Plant response rating, Kochia (kochia [20]; [23]): 90
- Plant response rating, Blackgrass (blackgrass [21]): 90
- Blackgrass plant response rating (blackgrass [21]): 60
